Data from US20230346827A1 (priority 2020, published 2023).

How the values were obtained:
human PBMC = test: Stimulated cytokine release from human PBMC (5-plex Luminex: IFNγ, IL-8, TNFα, IL-1β, IL-10); type: cell-based
Procedure: Example 9 investigated the ability of LMW-DS to modify the secretion of IL-6 from human PBMC arising from the use of various stimuli. The present study performed a broader analysis of the cell culture supernatants arising from Example 9. Thus, peripheral blood mononuclear cells (PBMC) were isolated from healthy donors through Ficoll-Paque PLUS density centrifugation. The PBMC were cultured at 2×10^5 cells/well in the absence (unstimulated PBS vehicle controls) or presence of stimulation (LPS, peptidoglycan, pokeweed mitogen, PHA-L, CpG + IL-15, or Cytostim) in the absence (vehicle) or presence of LMW-DS (Tikomed AB, Viken, Sweden, WO 2016/076780; three concentrations; top concentration 600 µg/ml, 200 µg/ml and 60 µg/ml) for 24 hours at 37° C., 5% CO2.
Accordingly, the treatments were as follows for each PBMC donor: • i. Vehicle • ii. Simulation • iii. Stimulation + LMW-DS (60 µg/ml) • iv. Stimulation + LMW-DS (200 µg/ml) • v. Stimulation + LMW-DS (600 µg/ml) with each assessed in triplicate such that the total numbers of samples were: • 1. LPS; 165 samples (from 11 donors) • 2. Peptidoglycan from B. subtilis; 90 samples (from 6 donors) • 3. PHA-L; 90 samples (from 6 donors) • 4. 0.2 µM CpG + IL-15; 90 samples (from 6 donors) • 5. 1.0 µM CpG + IL-15; 90 samples (from 6 donors) • 6. Pokeweed mitogen; 90 samples (from 6 donors) • 7. 10 µl/ml Cytostim; 90 samples (from 6 donors) • 8. 30 µl/ml Cytostim; 90 samples (from 6 donors)
Following treatment, cell culture supernatants were removed, centrifuged and stored at -20° C. before thawing for multiplex analysis of various cytokines using the 5-plex human magnetic Luminex assay from R&D systems (Cat. No. LXSAHM-05). Luminex analysis was carried out exactly following manufacturer’s protocols.

ALS patients = test: Serum lactate in ALS patients, dextran sulfate 2 mg/kg s.c. weekly for ten weeks (Example 14); type: in vivo, human; set-up: serum lactate levels: unit not given here
Procedure: Dextran sulfate (ILB®, Tikomed AB, Viken, Sweden, WO 2016/076780) was administered at 2 mg/kg by […] subcutaneous injection once a week for ten weeks to 8 human patients suffering from ALS.
Peripheral venous blood samples were collected from patients before (week 0) and after dextran sulfate administration (week 5 and week 10) after at least 15 minutes of complete rest, using the standard tourniquet procedure, from the antecubital vein into a single VACUETTE® polypropylene tube containing serum separator and clot activator (Greiner-Bio One GmbH, Kremsmunster, Austria). After 30 mins at room temperature (20-25° C.), blood withdrawals were centrifuged at 1,890 × g for 10 min to get serum aliquots.
A serum aliquot of 500 µl was supplemented with 1 ml of HPLC-grade acetonitrile, vortexed for 60 secs, centrifuged at the maximum speed in a top-bench centrifuge to precipitate proteins. Supernatants were washed with large volumes of HPLC-grade chloroform to remove organic solvent, centrifuged and the upper aqueous phases were transferred to different tubes, clearly labeled to identify the sample and stored at -80° C. until analyzed to determine different water-soluble compounds.

[1] = tested on: bronchial epithelial cells and HDFn + (TNFα and IL-4); test: BioMAP BF4T system; type: cell-based, human; details: annotated relative to vehicle controls
Text: (§1) Cell types and stimuli used in each system are as follows: 3C system [HUVEC + (IL-1β, TNFα and IFNy)], 4H system [HUVEC + (IL-4 and histamine)], LPS system [PBMC and HUVEC + LPS (TLR4 ligand)], SAg system [PBMC and HUVEC + TCR ligands], BT system [CD19+ B cells and PBMC + (α-IgM and TCR ligands)], BF4T system [bronchial epithelial cells and HDFn + (TNFα and IL-4)], BE3C system [bronchial epithelial cells + (IL-1β, TNFα and IFNy)], CASM3C system [coronary artery smooth muscle cells + (IL-1 β, TNFα and IFNy)], HDF3CGF system [HDFn + (IL-1β, TNFα, IFNy, EGF, bFGF and PDGF-BB)], KF3CT system [keratinocytes and HDFn + (IL-1β, TNFα, IFNy and TGFβ)], MyoF system [differentiated lung myofibroblasts + (TNFα and TGFβ)] and Mphg system [HUVEC and M1 macrophages + Zymosan (TLR2 ligand)].
(§2) Systems are derived from either single cell types or co-culture systems. Adherent cell types are cultured in 96 or 384-well plates until confluence, followed by the addition of PBMC (SAg and LPS systems). […] Soluble factors from supernatants are quantified using either HTRF® detection, bead-based multiplex immunoassay or capture ELISA. Overt adverse effects of test agents on cell proliferation and viability (cytotoxicity) are detected by sulforhodamine B (SRB) staining, for adherent cells, and alamarBlue® reduction for cells in suspension. […]

[2] = tested on: HUVEC + (IL-4 and histamine); test: BioMAP 4H system; type: cell-based, human; details: annotated relative to vehicle controls
Text: as §1, §2

[3] = tested on: coronary artery smooth muscle cells + (IL-1 β, TNFα and IFNy); test: BioMAP CASM3C system; type: cell-based, human; details: annotated relative to vehicle controls
Text: as §1, §2

[4] = LPS, highest concentration of LMW-DS

sodium salt of dextran sulfate [LMW-DS]
IL-8 secretion response (human PBMC; CpG + IL-15): little impact
IL-10 secretion (human PBMC; Cytostim): concentration dependent large reduction
secretion of IFNγ, IL-1β, IL-8, TNFα (human PBMC; Cytostim): small reductions
IFNγ secretion (human PBMC; LPS, LMW-DS 60-600 µg/ml): concentration dependent but small reduction
IL-10 secretion (human PBMC; LPS, LMW-DS 60-600 µg/ml): concentration dependent but small reduction
IL-1β secretion (human PBMC; [4]): modest reduction
IL-8 secretion (human PBMC; [4]): modest reduction
TNFα secretion (human PBMC; [4]): modest reduction
IFNγ release (human PBMC; PHA-L): small decreases
IL-8 release (human PBMC; PHA-L): small decreases
IL-10 secretion (human PBMC; PHA-L): large, concentration dependent decrease
TNFα release (human PBMC; PHA-L): small decreases
IL-1β secretion (human PBMC; peptidoglycan): increases
TNFα secretion (human PBMC; peptidoglycan): increases
general reduction in cytokine release (human PBMC; peptidoglycan, LMW-DS up to 600 µg/ml): little evidence
IL-10 secretion (human PBMC; pokeweed mitogen): concentration-dependent decrease
secretion of IFNγ, IL-1β, IL-8, TNFα (human PBMC; pokeweed mitogen): not impacted generally
increase of serum lactate levels vs Week 0 (ALS patients; after 5 weeks of treatment): 29.8%
serum lactate levels (ALS patients; after 5 weeks of treatment): 2.31±1.02
increase of serum lactate levels vs Week 0 (ALS patients; after 10 weeks of treatment): 70%
serum lactate levels (ALS patients; after 10 weeks of treatment): 3.02±1.59
Increased biomarker activity [1]: Eot3
Increased biomarker activity [2]: uPAR
Decreased biomarker activity [3]: VCAM-1, MIG
